The source made the active and inactive calls. The rule behind the calls is not given here.
Target: Potassium voltage-gated channel subfamily KQT member 2 (Rattus norvegicus) (UniProt O88943)
Experiment: block of rat KCNQ2 potassium current – cell-based, automated electrophysiology, SAR follow-up (AID 652152)
Conditions: KCNQ2-expressing cells, automated patch-clamp current; for inhibition: at 30 µM (top of the series)

Sequence of Potassium voltage-gated channel subfamily KQT member 2 (Rattus norvegicus) (O88943 whole entry, looked up): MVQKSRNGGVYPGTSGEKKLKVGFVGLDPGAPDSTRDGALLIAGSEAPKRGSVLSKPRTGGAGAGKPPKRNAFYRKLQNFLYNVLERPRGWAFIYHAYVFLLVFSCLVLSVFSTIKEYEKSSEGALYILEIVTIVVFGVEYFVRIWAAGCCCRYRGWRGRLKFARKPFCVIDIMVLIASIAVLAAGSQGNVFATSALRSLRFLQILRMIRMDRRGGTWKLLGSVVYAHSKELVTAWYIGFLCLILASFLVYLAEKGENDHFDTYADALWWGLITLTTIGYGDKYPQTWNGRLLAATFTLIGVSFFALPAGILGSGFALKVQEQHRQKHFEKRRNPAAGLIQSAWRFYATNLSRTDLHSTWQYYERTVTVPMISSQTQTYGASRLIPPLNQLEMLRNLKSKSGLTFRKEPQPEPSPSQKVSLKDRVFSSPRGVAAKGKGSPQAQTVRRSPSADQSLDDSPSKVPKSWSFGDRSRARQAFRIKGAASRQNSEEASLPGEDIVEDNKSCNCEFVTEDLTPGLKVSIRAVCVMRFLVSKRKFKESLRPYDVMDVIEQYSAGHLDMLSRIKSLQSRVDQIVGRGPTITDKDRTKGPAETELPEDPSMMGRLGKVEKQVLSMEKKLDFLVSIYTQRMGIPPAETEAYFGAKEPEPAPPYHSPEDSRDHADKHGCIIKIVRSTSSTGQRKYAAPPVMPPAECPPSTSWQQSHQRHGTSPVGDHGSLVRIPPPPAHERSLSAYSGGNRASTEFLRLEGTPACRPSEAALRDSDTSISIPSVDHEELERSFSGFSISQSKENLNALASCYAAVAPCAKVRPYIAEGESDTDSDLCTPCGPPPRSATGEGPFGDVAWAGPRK

Compound	IC50 [µM]	inhibition
CC[C@H](C(=O)Nc1ccccc1N1CCN(c2ccncc2C)CC1)c1ccccc1	21.2	–
CC[C@H](C(=O)Nc1ccc(N2CC(c3ccc(Cl)cc3)C2)cc1)c1ccccc1	–	inactive
CC[C@H](C(=O)Nc1ccccc1N1CCC(F)(F)CC1)c1ccccc1	2.8	–
CC[C@H](C(=O)Nc1ccccc1N1CC[C@H](F)C1)c1ccccc1	0.21	–
CC[C@H](C(=O)Nc1ccc(N2CCCC(F)C2)cc1)c1ccccc1 (stereo not given in full)	–	inactive

Next, values leading:

IC50 [µM]	inhibition	Compound
0.12	–	CC[C@H](C(=O)Nc1ccc(N2CC[C@H](F)C2)cc1)c1ccccc1
–	inactive	CC[C@H](C(=O)Nc1ccc(N2CCN(c3cc(C(F)(F)F)ccn3)CC2)cc1)c1ccccc1
0.75	–	CC[C@H](C(=O)Nc1ccc(N2CCC(F)(F)CC2)cc1)c1ccccc1
–	inactive	CC[C@H](C(=O)Nc1ccc(N2CCN(c3ccncc3C)CC2)cc1)c1ccccc1
0.89	–	CC[C@H](C(=O)Nc1ccccc1N1CC(c2ccc(Cl)cc2)C1)c1ccccc1

Source: PubChem BioAssay AID652152 (Johns Hopkins Ion Channel Center, 2013)
